These results are taken from patent publication EP2951180B1, “2,6,7,8 SUBSTITUTED PURINES AS HDM2 INHIBITORS” (Merck Sharp & Dohme Corp., priority 2013, dated 2014).

By IC50 is commonly meant the concentration that inhibits the measured activity by half.

Each structure is given as a SMILES string. Like-named read-outs stand apart in the source and are kept apart here.

For this assay, the target named is T1, HDM2 (Homo sapiens, UniProt Q00987).
T1 construct: Thioredoxin (N); made in house; host or cells: E. coli strain BL21(DE3)Rosetta
T1 sequence (Q00987 17-125): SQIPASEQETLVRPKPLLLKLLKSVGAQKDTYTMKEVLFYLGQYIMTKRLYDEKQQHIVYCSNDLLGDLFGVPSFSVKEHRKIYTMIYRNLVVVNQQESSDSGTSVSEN
The assay is described as follows: HDM2 FRET assay (inhibition of binding of FITC labeled p53-pocket peptide to HDM2). The following applies: read-out: FRET IC50. The source says:
Methods: An HDM2 FRET assay was developed to assess the compounds' inhibitory activity towards binding of p53 protein. […] Protein was purified using Ni-affinity chromatography, followed by size exclusion chromatography using Superdex 75 26/60 column. […] The HDM2 assay buffer contained 1x Phosphate Buffered Saline (Invitrogen, Cat#14190), 0.01% BSA (Jackson ImmunoResearch, Cat# 001-000-162), 0.01% Tween-20. In the 1X assay buffer recombinant HDM2 protein, peptide and Lumi4-Tb Cryptate-conjugate mouse anti-6xHis antibody (cisbio, Cat#Tb61HISTLB) were added and transferred to ProxiPlate PLUS (PerkinElmer, Cat#6008269), containing compounds so that final DMSO concentration is 0.1% . Final concentrations of reagents in the assay wells are 0.5 nM HDM2, 0.25nM anti HIS (Tb label) antibody and 3nM peptide. […] Ratio of em520/em495 was used to calculate %inhibition and to obtain IC50 with 4-parameter logistic equation.
IC50 DETERMINATIONS: Dose-response curves were plotted from the inhibition data, from 10 point serial dilutions of inhibitory compounds. Concentration of compound was plotted against em520/Cem495 ratio signal. To generate IC50 values, the dose-response curves were fitted to a standard sigmoidal curve and IC50 values were derived by nonlinear regression analysis.

Setting [1] is: 0.5 nM HDM2 (residues 17 to 125), 3nM peptide, two hour incubation at room temperature.

For `C[C@@H](Nc1nc(-c2noc(=O)[nH]2)nc2nc(C3=CCCCC3)n(C[C@H]3CC[C@H](C)CC3)c12)C1CCC1` [Example 21.37, 3-(6-{[(1R)-1-cyclobutylethyl]amino}-8-cyclohex-1-en-1-yl-7-[(trans-4-methylcyclohexyl)methyl]-7H-purin-2-yl)-1,2,4-oxadiazol-5(4H)-one], the IC50 (Table 21) was found to be 0.00379 µM. Consider `C[C@H]1CC[C@H](Cn2c(N3CCOC[C@H]3c3ccccc3)nc3nc(-c4noc(=O)[nH]4)nc(N4CCCCC4C4CCC4)c32)CC1` (stereo partly drawn) [Example 11.82, 3-{6-(2-cyclobutylpiperidin-1-yl)-7-[(trans-4-methylcyclohexyl)methyl]-8-[(3R)-3-phenylmorpholin-4-yl]-7H -purin-2-yl}-1,2,4-oxadiazol-5(4H)-one], for which the IC50 (Table 11) amounted to 0.00645 µM. `C[C@@H](Nc1nc(C(=O)O)nc2nc(N3CCCCC3c3cccnc3)n(C[C@H]3CC[C@H](C)CC3)c12)C1CCC1` (stereo partly drawn) [Example 11.19, 6-{[(1R)-1-cyclobutylethyl]amino}-7-[(trans-4-methylcyclohexyl)methyl]-8-(2-pyridin-3-ylpiperidin-1-yl)-7H-purine-2-carboxylic acid]: the half-maximal inhibitory concentration (IC50) (Table 11) was 0.000895 µM. As for `C[C@@H](Nc1nc(N2CC(C(=O)O)C(C)(C)C2)nc2nc(N3CCOC[C@H]3c3ccccc3)n(C[C@H]3CC[C@H](C)CC3)c12)C1CCC1` (stereo partly drawn) [Example 13.11, 1-(6-{[(1R)-1-cyclobutylethyl]amino}-7-[(trans-4-methylcyclohexyl)methyl]-8-[(3R)-3-phenylmorpholin-4-yl]-7H-purin-2-yl)-4,4-dimethylpyrrolidine-3 - carboxylic acid], under setting [1], the IC50 is 0.0959 µM. With `C[C@@H](Nc1nc(-c2n[nH]c(=O)o2)nc2nc(N3CCOC4CCCC43)n(C[C@H]3CC[C@H](C)CC3)c12)C1CCC1` (single isomer, unassigned) [Example 11.141], under “Table 11”, the IC50 is 0.000841 µM. With `C[C@@H](Nc1nc(-c2noc(=O)[nH]2)nc2nc(C(C)(O)C(C)(C)C)n(C[C@H]3CC[C@H](C)CC3)c12)C1CCC1` (stereo partly drawn) [Example 22.2, 3-(6-{[(1R)-1-cyclobutylethyl]amino}-8-(1-hydroxy-1,2,2-trimethylpropyl)-7-[(trans-4-methylcyclohexyl)methyl]-7H-purin-2-yl)-1,2,4-oxadiazol-5(4H)-one], the IC50 (Table 22) was found to be 0.0106 µM.

Turning to `Cc1cccc(-c2nc3nc(C(=O)O)nc(NC4CCCCC4C)c3n2Cc2ccc(Br)cc2)c1` (centres unmarked) [Example 6.9, 7-(4-bromobenzyl)-6-[(2-methylcyclohexyl)amino]-8-(3-methylphenyl)-7H-purine-2-carboxylic acid], the IC50 (Table 6) is 0.0223 µM. As to `C[C@@H](Nc1nc(N(C)CC(=O)O)nc2nc(N3CCOC[C@H]3c3ccccc3)n(C[C@H]3CC[C@H](C)CC3)c12)C1CCC1` [Example 13.8, N-(6-{[(1R)-1-cyclobutylethyl]amino}-7-[(trans-4-methylcyclohexyl)methyl]-8-[(3R)-3-phenylmorpholin-4-yl]-7H-purin-2-yl)-N-methylglycine], the IC50 under setting [1] was determined as 0.12 µM. On to `C[C@@H](Nc1nc(C(=O)O)nc2nc(CN(C)C3CCCCC3)n(Cc3ccc(C(F)(F)F)cc3)c12)C1CCC1` [Example 10.14, (R)-6-((1-cyclobutylethyl)amino)-8-((cyclohexyl(methyl)amino)methyl)-7-(4-(trifluoromethyl)benzyl)-7H-purine-2-carboxylic acid], for which the IC50 (Table 10) is 0.00453 µM. On to `C[C@H]1CC[C@H](Cn2c(N3CCOCC3)nc3nc(-c4n[nH]c(=O)o4)nc(-c4cccc(Cl)c4)c32)CC1` [Example 16.33, 5-{6-(3-chlorophenyl)-7-[(trans-4-methylcyclohexyl)methyl]-8-morpholin-4-yl-7H-purin-2-yl}-1,3,4-oxadiazol-2(3H)-one], for which the IC50 under setting [1] is 0.163 µM. Regarding `CC(=O)c1nc(N[C@H](C)C2CCC2)c2c(n1)nc(-c1cc(C(C)C)ccn1)n2C[C@H]1CC[C@H](C)CC1` [Example 12.5, 1-(6-{[(1R)-1-cyclobutylethyl]amino}-7-[(trans-4-methylcyclohexyl)methyl]-8-[4-(propan-2-yl)pyridin-2-yl]-7H-purin-2-yl)ethanone], under setting [1], the IC50 is 0.471 µM.
